Values quoted from earlier work, collected in US7727979B2, “Guanidine derivatives and their use as neuropeptide FF receptor antagonists” (Actelion Pharmaceuticals Ltd., priority 2003, dated 2010).

System: human and rat-NPFF1 receptor

NC(N)=NCCC[C@@H](NC(=O)C(c1ccccc1)c1ccccc1)C(=O)NCc1ccc(O)cc1 [BIBP3226]
times higher affinity to NPFF1 receptor than to the corresponding NPFF2 receptors: 10-60 times
